Laboratory results reported in ChEMBL document CHEMBL5724564, “Patient-derived NASH model to assess the effects of chemical probes on hepatocyte regenerations” (2024).

tested on: Hepatocyte spheroids; assay: Cell viability is assessed by cellular ATP assay using CellTiter-Glo Luminescent kit. Viability is expressed as average RLU from biological replicates and normalized to negative control.Toxicity is defined as those with normalized ATP significantly less than 80 percent of the negative control.; format: functional, Homo sapiens; design: unit not given here; settings: not given

Row | Structure (SMILES) | Proliferation
1 | Cc1c(NC(=O)c2ccc(C(C)(C)C)cc2)cccc1-c1cn(C)c(=O)c(Nc2ccc(C(=O)N3CCOCC3)cc2)n1 | 0.2187
2 | CCOC(=O)c1c(/C(C#N)=C\N)c2ccc(Cl)c(Cl)c2n1C | 0.874
3 | CCOc1cc(N2CCC(O)CC2)ccc1Nc1ncc2c(n1)N(C)c1ccccc1C(=O)N2C | 0.02286
4 | CNc1nc(-c2ccc3c(N)n[nH]c3c2)cc(N2C[C@@H](C(=O)NC3CCCCC3)CC[C@H]2C)n1 | 0.1604
5 | CSc1ccc(-c2cc3ncnc(SCC(=O)O)c3s2)cc1 | 0.882
6 | CCn1c(-c2nonc2N)nc2c(C#CC(C)(C)O)ncc(OCC3CCCNC3)c21 (configuration not stated) | 0.006402
7 | Cn1cc(-c2ccc3c(c2)CCN3C(=O)Cc2cccc(C(F)(F)F)c2)c2c(N)ncnc21 | 0.03291
8 | CCCCNc1ncc(-c2ccc(CN3CCOCC3)cn2)c(N[C@H]2CC[C@H](O)CC2)n1 | 0.01481
9 | COc1cc2c(cc1OCCCN1CCCC1)N=C(N)C21CCC1 | 0.2543
10 | COc1ccccc1-c1cc(Nc2cccc(CS(N)(=O)=O)c2)ncn1 | 0.2719
11 | COc1ccccc1C(=O)Nc1cc2c(cc1N1CCCC1)n(C)c(=O)n2C | 0.003878
12 | O=C(Nc1ccc2[nH]nc(-c3ccncc3)c2c1)[C@@H]1CCN(CC(=O)N2CCN(c3ccc(-c4ncccn4)cc3)CC2)C1 | 0.03313
13 | Nc1nc(NC2CC2)cc(-c2cccc(Cl)c2Cl)n1 | 0.05031
14 | COc1cc(-c2cn(C)c(=O)c3cnccc23)c(OC)cc1CN(C)C | 0.1518
15 | O=C(N[C@@H]1CCOC1)C1CCN(c2nc3cc(Cl)c(Cl)cc3n2-c2ccc3ccccc3n2)CC1 | 0.003884
16 | CC(=O)c1cc(-c2cc(C(=O)NC3CC3)ccc2C)c2ncccn12 | 0.01914
17 | CN1C[C@H](Nc2cnn(C)c(=O)c2Br)C[C@H](c2ccccc2)C1 | 0.003884
18 | Cc1cc2c(cc1N1C(=O)c3cccc4c(CCCO)ccc(c34)C1=O)n(C)c(=O)n2C | 0.07854
19 | CN(C)[C@H]1CN(C2CCc3cccc(F)c32)C[C@@H]1c1ccc(N2CCN(S(C)(=O)=O)CC2)cc1 (some centres not stated) | 0
20 | Nc1ncnc2c1ccn2[C@@H]1O[C@H]([C@H](O)c2ccccc2)[C@@H](O)[C@H]1O | 0.1599
21 | CO[C@H]1CNC[C@@H](OCC2CCC(F)(F)CC2)[C@@H]1Nc1ncc(-c2cncc(C)c2)c2cc(C)c(=O)[nH]c12 | 0.02957
22 | COc1cc(Nc2ccnc3ccc(Br)cc23)cc(OC)c1OC | 0.5391
23 | CCN(CC)S(=O)(=O)Nc1cccc(-c2ccc3c(NC(=O)C4CC4)n[nH]c3c2)c1 | 0.0004
24 | CC(C)(C)S(=O)(=O)c1cc2c(Nc3ccc4scnc4c3)ncnc2cc1OCCO | 0.5541
25 | Cc1cn(-c2cc(NC(=O)c3ccc4c(c3)CN(c3cncnc3)C[C@@H]4C)cc(C(F)(F)F)c2)cn1 | 0.4149
26 | CNCCN1CCC(c2cc(CN(C)C(=O)c3cccc(Oc4ccccc4)c3)ccn2)CC1 | 0.03291
27 | CN(C)C(=O)/C(C#N)=C/c1ccc(-c2nc3cnc4[nH]ccc4c3n2C2CCCCC2)o1 | 0.07463
28 | COc1c(C)cc(NC(=O)c2nn(Cc3ccc(F)cc3)c3c2CN(C(=O)c2ccc[nH]2)C[C@]3(C)C(N)=O)cc1C | 0.06587

Row | Structure (SMILES) | Proliferation
29 | Cc1nnc2c3ccccc3c(N[C@@H](C)[C@H](c3ccccc3)N(C)C)nn12 | 0.0435
30 | Cl.Cl.NC1(c2ccc(-c3nc4ccn5c(=O)[nH]nc5c4cc3-c3ccccc3)cc2)CCC1 | 0.5443
31 | CCCCN(CCCC)C(=O)CN1C[C@H](c2cc(OC)c3c(c2)OCO3)[C@@H](C(=O)O)[C@@H]1CC(C)(C)CCC.Cc1ccc(S(=O)(=O)O)cc1 | 0.6131
32 | CCCCN(CCCC)C(=O)CN1C[C@@H](c2cc(OC)c3c(c2)OCO3)[C@H](C(=O)O)[C@H]1CC(C)(C)CCC.Cl | 0.1508
33 | CCNC(=O)c1cc2c(N3CCOCC3C)ccnc2[nH]1 (configuration not stated) | 0.05192
34 | COc1ccccc1C(=O)Nc1cc2c(cc1N1CCNCC1C)n(C)c(=O)n2C (configuration not stated) | 0.1835
35 | O=C(c1ccc2[nH]ccc2c1)N1CCN(S(=O)(=O)c2ccc3[nH]c(=O)oc3c2)CC1 | 0.6071
36 | O=C(Nc1ccc(I)cc1)N1CCC(n2c(=O)[nH]c3c(Br)cccc32)CC1 | 0.001093
37 | Nc1cc(N)c(NC(=O)Nc2ccc(C(=O)N[C@@H](CCC(=O)O)C(=O)O)cc2)c(=O)[nH]1 | 0.01013
38 | CS(=O)(=O)Nc1cc([N+](=O)[O-])ccc1OC1CCCCC1 | 0.6769
39 | CNC(=O)Nc1ccc2c(c1)CC[C@@]21OC(=O)N(CC(=O)N(Cc2ccc(F)cc2)[C@@H](C)C(F)(F)F)C1=O [A-485] | 0.02668
40 | CN(C)C/C=C/C(=O)Nc1cc2c(Nc3ccc(F)c(Cl)c3)ncnc2cc1O[C@H]1CCOC1.O=C(O)/C=C\C(=O)O.O=C(O)/C=C\C(=O)O [AFATINIB DIMALEATE] | 0.1122
41 | O=C(N1CCS(=O)(=O)CC1)N1C[C@H](c2ccc(OC(F)(F)F)cc2)C[C@H](c2nc(C3CC3)no2)C1 [BAY-386] | 0.02871
42 | CC(=O)C1=C(C)N(c2cccc(C(F)(F)F)c2)C(=O)N[C@@H]1c1ccc(C#N)nc1 [BAY-678] | 0.03291
43 | Cc1c(NC(=O)c2cc(C(N)=O)nc3cc(F)ccc23)c(C(F)(F)F)nn1Cc1ccc(C#N)cc1 [BAY-876] | 0.01262
44 | O=C(O)[C@H]1[C@H](Cn2nnc3ccccc3c2=O)CC[C@@H]1C(=O)c1ccc(OCCC2CCOCC2)cc1 [BAY-7598] | 0.03535
45 | CCOCCn1cc(C(=O)Nc2ccc(-n3nc(-c4cccnc4)cc3C(F)(F)F)cn2)ccc1=O [BI 1935] | 0.3766
46 | CC(=O)N1CCC(c2ccc(C(=O)NC(=N)N)cc2C(F)(F)F)CC1 [BI 9627] | 0.09817
47 | CCC(=O)N[C@H]1CC[C@@H](C(=O)N(C)c2ccc(-c3nc4ccccc4o3)cc2)C1 [BI 99179] | 0.7724
48 | CN(C)C(=O)Cn1cc(-c2nc([C@@](C)(c3ccc(-c4cnc(N)nc4)cc3)C3CC3)no2)cn1 [BI 665915] | 0.119
49 | Cn1cnc2c1c(=O)n(CCCn1c(=O)c3c(ncn3C)n(C)c1=O)c(=O)n2C [BISDIONIN C] | 0.03665
50 | O=c1nc(-c2ccccn2)sc2ccccc12 [BTZO-1] | 0.08275
51 | CNC(=O)c1ccc(Nc2ncc(C(F)(F)F)c(NCc3nccnc3N(C)S(C)(=O)=O)n2)cc1 [DEFACTINIB] | 0.1091
52 | O=C(O)Cc1ccccc1Nc1c(Cl)cccc1Cl [DICLOFENAC] | 0.2575
53 | C[C@@H](NC(=O)Nc1cc2[nH]ncc2c(CO)n1)c1ccccc1 [ERKi] | 0.06922
54 | CC(C)c1ccc(Nc2nccc(-c3cnn4ncccc34)n2)cc1 [GW805758X] | 0.2702
55 | CN(Cc1cnc2nc(N)nc(N)c2n1)c1ccc(C(=O)N[C@@H](CCC(=O)O)C(=O)O)cc1 [METHOTREXATE] | 0.002627

same assay, conditions: Concentration range 1nM-1uM

Row | Structure (SMILES) | Proliferation
56 | Cc1sc2c(c1C)C(c1ccc(Cl)cc1)=NC(CC(=O)OC(C)(C)C)c1nnc(C)n1-2 (configuration not stated) | 0.001662
57 | Cl.Cl.c1ccc([C@@H]2C[C@H]2NC2CCNCC2)cc1 | 0.6494

same assay, conditions: Concentration range 3nM-3uM

Row | Structure (SMILES) | Proliferation
58 | COc1ccc(CCc2nc3cc(-c4c(C)noc4C)ccc3n2C[C@H](C)N2CCOCC2)cc1Cl | 0.2022

same assay, conditions: Concentration range 5nM-5uM

Row | Structure (SMILES) | Proliferation
59 | COc1cc2c(NC3CCN(C(C)C)CC3)nc(C3CCCCC3)nc2cc1OCCCN1CCCC1 | 0.05128
60 | CCCc1cc(C)[nH]c(=O)c1CNC(=O)c1cc(-c2ccnc(N3CCN(C)CC3)c2)cc2c1cnn2C(C)C | 0.009822
61 | COc1cc2c(NC3CCN(C(C)C)CC3)nc(N3CCC(F)(F)CC3)nc2cc1OCCCN1CCCC1 | 0.008491
62 | COc1cc2c(cc1NS(=O)(=O)c1ccc(Br)cc1C)n(C)c(=O)n2C | 0.003884
63 | CCC(=O)N1CCOc2c(cc(-c3ccc(OC)c(OC)c3)cc2OCC2CCCN(C)C2)C1 (configuration not stated) | 0.8195
64 | Cn1cc(CCn2cnc(-c3cnn(C)c3)c2-c2ccc(C#N)cc2)cn1 | 0.05329

same assay, conditions: Concentration range 10nM-10uM

Row | Structure (SMILES) | Proliferation
65 | COc1ccccc1S(=O)(=O)Nc1ccc2c(c1)CN(C)C(=O)N2 | 0.003099
66 | CC(C)N(CCCNC(=O)Nc1ccc(C(C)(C)C)cc1)C[C@H]1O[C@@H](n2cc(Br)c3c(N)ncnc32)[C@H](O)[C@@H]1O | 0.01234
67 | Cc1cn(CCN2CCN(c3ccccc3-c3cc(C#N)cc(C(=O)NCCCN4CCCC4)c3)CC2)c2ccccc12 | 0.05285
68 | CCCOc1ccn2c(C(C)=O)cc(-c3ccccc3S(C)(=O)=O)c2c1 | 0.6349
69 | COc1cc(C#N)ccc1S(=O)(=O)Nc1ccc2c(c1)cc(C)c(=O)n2C | 0.0004
70 | O=C(/C=C/N1C[C@H]2C[C@@H]1CN2c1ccccn1)c1ccccc1O | 0.02966
71 | Cc1cc(=O)n(C)c2cc(N3C(=O)CC[C@H](NS(=O)(=O)CC(C)C)[C@H]3c3ccc(Cl)cc3)ccc12 | 0.2341
72 | CCn1cc(-c2cccc(C(F)(F)F)c2)c2sc(C(=N)NC3CCS(=O)(=O)CC3)cc2c1=O | 0.05754
73 | Cc1cc2nc(N3CCC(C(=O)NC4CCCC4)CC3)n(C(C)C)c2cc1C | 0.1009
74 | CN1CCN(c2ccc(-c3cccc(CN4CCOCC4)c3)cc2NC(=O)c2c[nH]c(=O)cc2C(F)(F)F)CC1 | 0.001358
75 | CCN(C(=O)CO)[C@H]1CN(/C(=N\C#N)Nc2cccc(OC(F)F)c2)N=C1c1ccc(Cl)c(Cl)c1 | 0.05466
76 | CC(C)Oc1ccc(-c2c[nH]cc2CN(C)CCN)cc1 | 0.2793
77 | CNCCN1CCC(OCc2ccccc2)CC1 | 0.406
78 | O=C(NCC(=O)N1CCCC1)Nc1ccc2cnccc2c1 | 0.06734
79 | Clc1cc2c(NC3CCCC3)nnc(-c3ccncc3)c2cc1Cl | 0.02485
80 | O=C(NC[C@H](O)CN1CCc2ccccc2C1)c1ccnc(NC2CCC2)c1 | 0.0004
81 | Cl.O=C([C@@H](Cc1cccc(C(F)(F)F)c1)NS(=O)(=O)c1cc(F)c2c(c1)CCNC2)N1CCCC1 | 0.01564
82 | COc1cc(C(=O)N2CC[C@@H](O)[C@@H](N)C2)cc2nc(-c3cc4ccccc4n3CC3CC3)n(C)c12.Cl | 0.09717
